Results: patent US9763445B2, “Safened herbicidal compositions comprising a pyridine carboxylic acid herbicide” (Dow AgroSciences, LLC, priority 2014, dated 2017)

Legend:
pigweed (AMARE) = test: Postemergence greenhouse trial, % visual injury on pigweed; assay type: in vivo, Amaranthus retroflexus; conditions: AMARE; for % visual injury, Ob: CQC-m 0 g/ha
In short: (§1)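 Postemergence greenhouse spray (187 L/ha, 1.5% v/v Agri-dex in water, acetone/DMSO stocks) on plants at second–third true leaf stage, ~23/22 °C, 14 h photoperiod; herbicides in g ae/ha, safener cloquintocet-mexyl in g ai/ha. Visual injury 0–100% versus solvent-blank controls after 20–22 d; Colby's equation gave expected mixture effects.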

winter rape (BRSNW) = test: Postemergence greenhouse trial, % visual injury on winter rape; assay type: in vivo, Brassica napus; conditions: BRSNW; for % visual injury, Ob: CQC-m 0 g/ha
In short: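 Plants at second or third true leaf stage, greenhouse-grown (14 h photoperiod, ~23/22° C.), sprayed postemergence with compounds alone or with safener cloquintocet-mexyl in 1.5% v/v Agri-dex crop oil at 187 L/ha. Visual injury scored 0–100% versus solvent-blank controls after 20-22 d; expected mixture effects by Colby's equation.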

spring wheat (TRZAS) = test: Postemergence greenhouse trial, % visual injury on spring wheat; assay type: in vivo, Triticum aestivum; conditions: TRZAS
In short: as §1

thistle (CIRAR) = test: Postemergence greenhouse trial, % visual injury on thistle; assay type: in vivo, Cirsium arvense; conditions: Cirsium arvense, post-emergence, CIRAR, applied alone, read-out: % visual injury, Ob
Procedure: Seeds of the desired test plant species were planted in Sun Gro MetroMix® 306 planting mixture, which typically has a pH of 6.0 to 6.8 and an organic matter content of about 30 percent, in plastic pots with a surface area of 103.2 square centimeters (cm^2). When required to ensure good germination and healthy plants, a fungicide treatment and/or other chemical or physical treatment was applied. The plants were grown for 7-36 days (d) in a greenhouse with an approximate 14-hour (h) photoperiod which was maintained at about 23° C. during the day and 22° C. during the night. Nutrients and water were added on a regular basis and supplemental lighting was provided with overhead metal halide 1000-Watt lamps as necessary. The plants were employed for testing when they reached the second or third true leaf stage.
Weighed amounts of technical material were dissolved in a volume of 97:3 volume per volume (v/v) acetone/dimethyl sulfoxide (DMSO) to stock solutions. […] The concentrated stock solutions were diluted with an aqueous mixture of 1.5% v/v of Agri-dex crop oil concentrate to provide the appropriate application rates. Compound requirements are based upon a 12 milliliter (mL) application volume at a rate of 187 liters per hectare (L/ha). Stocks solutions of the safeners were prepared following the same procedure. Spray solutions of the safeners and experimental compound mixtures were prepared by adding the stock solutions to the appropriate amount of dilution solution to form a 12 mL spray solution in two-way combinations. Formulated compounds were applied to the plant material with an overhead Mandel track sprayer equipped with 8002E nozzles calibrated to deliver 187 L/ha over an application area of 0.503 square meters (m^2) at a spray height of 18 inches (43 centimeters (cm)) above average plant canopy. Control plants were sprayed in the same manner with the solvent blank. All herbicide application (component a) rates are in g ae/ha and all safener (component b) rates are in g ai/ha.
The treated plants and control plants were placed in a greenhouse as described above and watered by sub-irrigation to prevent wash-off of the test compounds. After 20-22 d, the condition of the test plants as compared with that of the control plants was determined visually and scored on a scale of 0 to 100 percent where 0 corresponds to no injury and 100 corresponds to complete kill. The condition of the test plants was compared with that of the control plants as determined visually and scored on a scale of 0 to 100 percent, where 0 corresponds to no injury and 100 corresponds to complete kill. Colby's equation was used to determine the herbicidal effects expected from the mixtures.
The safener cloquintocet-mexyl was combined with compound 1, compound 2, compound 4, compound 5, and compound 6, and applied to corn/maize (ZEAMX) and spring wheat (TRZAS) and the phytotoxicity of the herbicidal compositions was measured. In addition, the efficacy of the herbicidal composition on velvetleaf (ABUTH, Abutilon theophrasti), pigweed (AMARE, Amaranthus retroflexus), winter rape (BRSNW, Brassica napus), lambsquarters (CHEAL, Chenopodium album), thistle (CIRAR, Cirsium arvense), nutsedge (CYPES, Cyperus esculentus), poinsettia (EPHHL, Euphorbia heterophylla), wild buckwheat (POLCO, Polygonum convolvulus), giant foxtail (SETFA, Setaria faberi), and chickweed (STEME, Stellaria media) was evaluated. […]

Russian thistle (SASKR) = test: Postemergence greenhouse trial, % visual injury on Russian thistle; assay type: in vivo, Salsola kali; conditions: SASKR
[1] = compound 4.375 g/ha, CQC-m 0 g/ha
[2] = compound 8.75 g/ha, CQC-m 0 g/ha
[3] = compound 17.5 g/ha, CQC-m 0 g/ha
[4] = compound 8 4.380 + CQC-m 0 g/ha

## Nc1c(F)c(-c2ccc3scnc3c2)nc(C(=O)O)c1Cl [compound 17]
Pigweed (AMARE); Amaranthus retroflexus, post-emergence, 17.5 g/ha, applied alone, read-out: % visual injury, Ob
  pest or weed control at 17.5 g/ha: 100%
Pigweed (AMARE); Amaranthus retroflexus, post-emergence, 35 g/ha, applied alone, read-out: % visual injury, Ob
  pest or weed control at 35 g/ha: 100%
Winter rape (BRSNW); Brassica napus, post-emergence, 4.375 g/ha, applied alone, read-out: % visual injury, Ob
  plant injury at 4.375 g/ha: 60%
Winter rape (BRSNW); Brassica napus, post-emergence, 8.75 g/ha, applied alone, read-out: % visual injury, Ob
  plant injury at 8.75 g/ha: 90%
Winter rape (BRSNW); Brassica napus, post-emergence, 17.5 g/ha, applied alone, read-out: % visual injury, Ob
  plant injury at 17.5 g/ha: 95%
Winter rape (BRSNW); Brassica napus, post-emergence, 35 g/ha, applied alone, read-out: % visual injury, Ob
  plant injury at 35 g/ha: 95%
Winter rape (BRSNW); Brassica napus, post-emergence, 70 g/ha, applied alone, read-out: % visual injury, Ob
  plant injury at 70 g/ha: 97%
Spring wheat (TRZAS); 4.375 g/ha, applied alone
  % visual injury, Ob: 0%
Spring wheat (TRZAS); 8.75 g/ha, applied alone
  % visual injury, Ob: 15%
Spring wheat (TRZAS); 17.5 g/ha, applied alone
  % visual injury, Ob: 30%
Spring wheat (TRZAS); 35 g/ha, applied alone
  % visual injury, Ob: 40%
Spring wheat (TRZAS); 70 g/ha, applied alone
  % visual injury, Ob: 45%
Thistle (CIRAR)
  pest or weed control at 4.375 g/ha: 0%
  pest or weed control at 8.75 g/ha: 0%
  pest or weed control at 17.5 g/ha: 10%
  pest or weed control at 35 g/ha: 20%
  pest or weed control at 70 g/ha: 20%

## COC(=O)c1nc(-c2ccc3cc[nH]c3c2F)c(F)c(N)c1OC [compound 12]
Russian thistle (SASKR); compound 4.380 g/ha, CQC-m 0
  % visual injury, Ob: 10%
Russian thistle (SASKR); compound 8.75 g/ha, CQC-m 0
  % visual injury, Ob: 33%
Russian thistle (SASKR); compound 17.5 g/ha, CQC-m 0
  % visual injury, Ob: 52%
Russian thistle (SASKR); compound 35 g/ha, CQC-m 0
  % visual injury, Ob: 72%
Russian thistle (SASKR); compound 70 g/ha, CQC-m 0
  % visual injury, Ob: 88%
Spring wheat (TRZAS); compound 4.380 g/ha, CQC-m 0
  % visual injury, Ob: 15%
Spring wheat (TRZAS); compound 8.75 g/ha, CQC-m 0
  % visual injury, Ob: 27%
Spring wheat (TRZAS); compound 17.5 g/ha, CQC-m 0
  % visual injury, Ob: 42%
Spring wheat (TRZAS); compound 35 g/ha, CQC-m 0
  % visual injury, Ob: 53%
Spring wheat (TRZAS); compound 70 g/ha, CQC-m 0
  % visual injury, Ob: 70%

## Nc1cc(-c2ccc3cc[nH]c3c2F)nc(C(=O)O)c1Cl [compound 15]
Pigweed (AMARE); compound 4.375 g/ha
  % visual injury, Ob: 70%
Pigweed (AMARE); compound 8.75 g/ha
  % visual injury, Ob: 100%
Pigweed (AMARE); compound 17.5 g/ha
  % visual injury, Ob: 100%
Pigweed (AMARE); compound 35 g/ha
  % visual injury, Ob: 100%
Winter rape (BRSNW); compound 4.375 g/ha
  % visual injury, Ob: 40%
Winter rape (BRSNW); compound 8.75 g/ha
  % visual injury, Ob: 40%
Winter rape (BRSNW); compound 17.5 g/ha
  % visual injury, Ob: 50%
Winter rape (BRSNW); compound 35 g/ha
  % visual injury, Ob: 70%
Winter rape (BRSNW); compound 70 g/ha
  % visual injury, Ob: 60%
Russian thistle (SASKR); [1]
  % visual injury, Ob: 10%
Russian thistle (SASKR); [2]
  % visual injury, Ob: 10%
Russian thistle (SASKR); [3]
  % visual injury, Ob: 10%
Russian thistle (SASKR); compound 35 g/ha, CQC-m 0 g/ha
  % visual injury, Ob: 60%
Russian thistle (SASKR); compound 70 g/ha, CQC-m 0 g/ha
  % visual injury, Ob: 70%
Spring wheat (TRZAS); [1]
  % visual injury, Ob: 0%
Spring wheat (TRZAS); [2]
  % visual injury, Ob: 10%
Spring wheat (TRZAS); [3]
  % visual injury, Ob: 15%
Spring wheat (TRZAS); compound 35 g/ha, CQC-m 0 g/ha
  % visual injury, Ob: 20%
Spring wheat (TRZAS); compound 70 g/ha, CQC-m 0 g/ha
  % visual injury, Ob: 25%

## Nc1c(F)c(-c2ccc3ccoc3c2)nc(C(=O)O)c1Cl [compound 20]
Russian thistle (SASKR); 4.375 g/ha, applied alone
  % visual injury, Ob: 20%
Russian thistle (SASKR); 8.75 g/ha, applied alone
  % visual injury, Ob: 40%
Russian thistle (SASKR); 17.5 g/ha, applied alone
  % visual injury, Ob: 60%
Russian thistle (SASKR); 35 g/ha, applied alone
  % visual injury, Ob: 80%
Russian thistle (SASKR); 70 g/ha, applied alone
  % visual injury, Ob: 80%
Spring wheat (TRZAS); 4.375 g/ha, applied alone
  % visual injury, Ob: 0%
Spring wheat (TRZAS); 8.75 g/ha, applied alone
  % visual injury, Ob: 0%
Spring wheat (TRZAS); 17.5 g/ha, applied alone
  % visual injury, Ob: 0%
Spring wheat (TRZAS); 35 g/ha, applied alone
  % visual injury, Ob: 10%
Spring wheat (TRZAS); 70 g/ha, applied alone
  % visual injury, Ob: 20%
Thistle (CIRAR)
  pest or weed control at 4.375 g/ha: 0%
  pest or weed control at 8.75 g/ha: 10%
  pest or weed control at 17.5 g/ha: 20%
  pest or weed control at 35 g/ha: 40%
  pest or weed control at 70 g/ha: 70%

## COC(=O)c1nc(-c2ccc3cc[nH]c3c2F)c(F)c(N)c1Cl [compound 8]
Russian thistle (SASKR); [4]
  % visual injury, observed (Ob): 61%
Russian thistle (SASKR); compound 8 8.75 + CQC-m 0 g/ha
  % visual injury, observed (Ob): 69%
Russian thistle (SASKR); compound 8 17.5 + CQC-m 0 g/ha
  % visual injury, observed (Ob): 83%
Russian thistle (SASKR); compound 8 35 + CQC-m 0 g/ha
  % visual injury, observed (Ob): 85%
Russian thistle (SASKR); compound 8 70 + CQC-m 0 g/ha
  % visual injury, observed (Ob): 90%
Spring wheat (TRZAS); [4]
  % visual injury, observed (Ob): 7%
Spring wheat (TRZAS); compound 8 8.75 + CQC-m 0 g/ha
  % visual injury, observed (Ob): 11%
Spring wheat (TRZAS); compound 8 17.5 + CQC-m 0 g/ha
  % visual injury, observed (Ob): 35%
Spring wheat (TRZAS); compound 8 35 + CQC-m 0 g/ha
  % visual injury, observed (Ob): 48%
Spring wheat (TRZAS); compound 8 70 + CQC-m 0 g/ha
  % visual injury, observed (Ob): 60%

## COc1c(C(=O)O)nc(-c2ccc3cc[nH]c3c2F)c(F)c1N [compound 13]
Winter rape (BRSNW); compound 4.375 g/ha
  % visual injury, Ob: 100%
Winter rape (BRSNW); compound 8.75 g/ha
  % visual injury, Ob: 100%
Winter rape (BRSNW); compound 17.5 g/ha
  % visual injury, Ob: 100%
Winter rape (BRSNW); compound 35 g/ha
  % visual injury, Ob: 100%
Winter rape (BRSNW); compound 70 g/ha
  % visual injury, Ob: 100%
Russian thistle (SASKR); [1]
  % visual injury, Ob: 50%
Russian thistle (SASKR); [2]
  % visual injury, Ob: 65%
Russian thistle (SASKR); [3]
  % visual injury, Ob: 77%
Russian thistle (SASKR); compound 35 g/ha, CQC-m 0 g/ha
  % visual injury, Ob: 83%
Russian thistle (SASKR); compound 70 g/ha, CQC-m 0 g/ha
  % visual injury, Ob: 91%
Spring wheat (TRZAS); [1]
  % visual injury, Ob: 40%
Spring wheat (TRZAS); [2]
  % visual injury, Ob: 53%
Spring wheat (TRZAS); [3]
  % visual injury, Ob: 67%
Spring wheat (TRZAS); compound 35 g/ha, CQC-m 0 g/ha
  % visual injury, Ob: 80%
Spring wheat (TRZAS); compound 70 g/ha, CQC-m 0 g/ha
  % visual injury, Ob: 87%
